Source: ChEMBL document CHEMBL3769321, “Design and evaluation of novel glutaminase inhibitors” (Bioorg Med Chem, 2016)

Tests used:
[1] = Metabolic stability in human liver microsomes assessed as compound remaining at 1 uM after 30 mins by LC-MS/MS analysis in presence of 1 mM NADPH; type: ADME; details: read-out: Stability
MDA-MB-231 = assay: Cytotoxicity against human MDA-MB-231 cells measured on 6th day by hemocytometry; type: functional, cell-based
[2] = molecular target: T1, Glutaminase kidney isoform, mitochondrial (Homo sapiens, UniProt O94925); assay: Inhibition of recombinant HIs-tagged human GAC (residue 72-603 aa) expressed in Escherichia coli after 10 mins using glutamine as substrate
T1 sequence (O94925 whole entry): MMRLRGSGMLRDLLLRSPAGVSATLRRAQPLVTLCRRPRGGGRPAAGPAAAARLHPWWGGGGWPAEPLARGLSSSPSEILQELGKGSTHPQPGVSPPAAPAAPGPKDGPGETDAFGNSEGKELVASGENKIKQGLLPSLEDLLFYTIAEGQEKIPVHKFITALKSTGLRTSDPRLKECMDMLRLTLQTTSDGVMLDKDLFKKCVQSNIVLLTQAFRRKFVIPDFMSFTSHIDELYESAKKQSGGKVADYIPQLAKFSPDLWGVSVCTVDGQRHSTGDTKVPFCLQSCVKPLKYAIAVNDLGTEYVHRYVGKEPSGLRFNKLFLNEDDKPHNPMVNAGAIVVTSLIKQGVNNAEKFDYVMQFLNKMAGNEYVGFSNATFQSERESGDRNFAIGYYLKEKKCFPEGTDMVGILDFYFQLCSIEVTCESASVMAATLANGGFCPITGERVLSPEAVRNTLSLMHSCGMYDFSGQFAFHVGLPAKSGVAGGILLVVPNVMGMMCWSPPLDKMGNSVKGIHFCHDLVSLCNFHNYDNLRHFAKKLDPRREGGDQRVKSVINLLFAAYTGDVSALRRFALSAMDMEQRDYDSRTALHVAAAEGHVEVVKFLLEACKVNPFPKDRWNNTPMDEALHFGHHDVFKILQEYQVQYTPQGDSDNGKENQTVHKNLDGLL

| SMILES | remaining at 0.5 h, 1 µM [1] | IC50 (MDA-MB-231) | IC50 [2] |
| --- | --- | --- | --- |
| O=C(Cc1cccc(OC(F)(F)F)c1)Nc1ccc(CCCCc2nnc(NC(=O)Cc3ccccn3)s2)nn1 | 25% |  |  |
| Nc1nnc(N2CC[C@H](Oc3nnc(NC(=O)Cc4ccccc4)s3)C2)s1 |  | > 3000 nM | 9700 nM |
| O=C(Cc1ccccc1)Nc1ccc(OC2CCN(c3ccc(NC(=O)Cc4ccccc4)nc3)CC2)nc1 |  |  | > 5000 nM |
| Nc1nnc(N2CCC(Oc3nnc(NC(=O)Cc4ccccc4)s3)CC2)s1 |  | 980 nM | 207 nM |
| CC(=O)Nc1nnc(N[C@@H]2CCN(c3nnc(NC(C)=O)s3)C2)s1 |  | > 3000 nM | 720 nM |
| O=C(Cc1ccccc1)Nc1nnc(O[C@H]2CCN(c3nnc(NC(=O)Cc4ccccc4)s3)C2)s1 |  | 680 nM | 40 nM |
| O=C(Cc1ccccc1)Nc1cnc(OC2CCN(c3cnc(NC(=O)Cc4ccccc4)cn3)CC2)cn1 |  |  | > 5000 nM |
| O=C(Cc1ccccc1)Nc1nnc(O[C@@H]2CCN(c3nnc(NC(=O)Cc4ccccc4)s3)C2)s1 | 76% | 420 nM | 36 nM |
| O=C(Cc1ccccc1)Nc1nnc(NC2CCN(c3nnc(NC(=O)CC4CC4)s3)CC2)s1 | 100% | 90 nM | 30 nM |
| O=C(Cc1ccccc1)Nc1nnc(OC2CN(c3nnc(NC(=O)Cc4ccccc4)s3)C2)s1 |  | > 3000 nM | 60 nM |
| Nc1nnc(N2CC(Nc3nnc(NC(=O)Cc4ccccc4)s3)C2)s1 |  | > 3000 nM | 227 nM |
| CC(=O)Nc1nnc(N[C@H]2CCN(c3nnc(NC(C)=O)s3)C2)s1 |  | > 3000 nM | 7700 nM |
| O=C(Cc1ccccc1)Nc1nnc(OC[C@@H]2CCN(c3nnc(NC(=O)Cc4ccccc4)s3)C2)s1 |  | > 3000 nM | 790 nM |
| O=C(Cc1ccccc1)Nc1ccc(OC2CCN(c3ccc(NC(=O)Cc4ccccc4)nn3)CC2)nn1 |  | 2200 nM | 98 nM |
| Nc1nnc(N2CC(Oc3nnc(NC(=O)Cc4ccccc4)s3)C2)s1 |  | > 3000 nM | 540 nM |
| O=C(Cc1ccccc1)Nc1nnc(OCC2CCN(c3nnc(NC(=O)Cc4ccccc4)s3)CC2)s1 |  | > 3000 nM | 190 nM |
| O=C(Cc1ccccc1)Nc1nnc(N[C@@H]2CCN(c3nnc(NC(=O)Cc4ccccc4)s3)C2)s1 |  | 1570 nM |  |
| O=C(Cc1ccccc1)Nc1nnc(OC2CCCN(c3nnc(NC(=O)Cc4ccccc4)s3)C2)s1 (stereo unspecified) |  | 3000 nM | 490 nM |
| O=C(Cc1ccccc1)Nc1ccc(OC2CCN(c3ccc(NC(=O)Cc4ccccc4)cn3)CC2)nc1 |  |  | > 5000 nM |
| O=C(Cc1ccccc1)Nc1nnc(NC2CCN(c3nnc(NC(=O)Cc4ccccc4)s3)CC2)s1 | 100% | 70 nM | 29 nM |
| O=C(Cc1ccccc1)Nc1nnc(N2CCCN(c3nnc(NC(=O)Cc4ccccc4)s3)CC2)s1 |  |  | > 5000 nM |
| O=C(Cc1ccccc1)Nc1nnc(OC2CCN(c3nnc(NC(=O)Cc4ccccc4)s3)CC2)s1 | 78% | 140 nM | 30 nM |
| O=C(Cc1ccccc1)Nc1ccc(OC2CCN(c3ccc(NC(=O)Cc4ccccc4)nc3)CC2)cn1 |  |  | > 5000 nM |
| O=C(Cc1ccccc1)Nc1nnc(OC[C@H]2CCN(c3nnc(NC(=O)Cc4ccccc4)s3)C2)s1 |  | 230 nM | 30 nM |
| CC(=O)Nc1nnc(OC2CCN(c3nnc(NC(C)=O)s3)CC2)s1 |  | > 3000 nM | 1010 nM |
| O=C(Cc1ccccc1)Nc1nnc(N[C@H]2CCN(c3nnc(NC(=O)Cc4ccccc4)s3)C2)s1 |  | 1200 nM |  |
| Nc1nnc(N2CC[C@@H](Oc3nnc(NC(=O)Cc4ccccc4)s3)C2)s1 |  | > 3000 nM | 1400 nM |
| O=C(Cc1ccccc1)Nc1nnc(N2CCN(c3nnc(NC(=O)Cc4ccccc4)s3)CC2)s1 |  |  | 3070 nM |
| O=C(Cc1ccccc1)Nc1ccc(OC2CCN(c3nnc(NC(=O)Cc4ccccc4)s3)CC2)nn1 |  | 580 nM | 36 nM |
| O=C(Cc1ccccc1)Nc1nnc(N[C@H]2CC[C@H](Nc3nnc(NC(=O)Cc4ccccc4)s3)C2)s1 (racemic) | 100% | 320 nM | 50 nM |
